From patent US20230398130A1, “METHODS AND COMPOSITIONS FOR DIFFERENTIATING STEM CELLS” (Massachusetts Institute of Technology, priority 2020, published 2023)

Experiments:
ISC-enriched organoids [1] = test: Primary screen, 384-well 2.5-D organoid differentiation (ENR+CD, 6 days): basal lysozyme secretion (LYZ.NS); format: cell-based, murine; settings: for Dose.FC.LYZ.NS (log 2 fold change): vs plate median; for Dose.FC.LYZ.NS: FC vs plate median; for SSMD.LYZ.NS: strictly standardized mean difference
Source text: (§1) High-throughput screening.

ISC-enriched organoids [2] = test: Primary screen, 384-well 2.5-D organoid differentiation (ENR+CD, 6 days): carbachol-induced lysozyme secretion (LYZ.S); format: cell-based, murine; settings: primary screen; for Dose.FC.LYZ.S (log 2 fold change): vs plate median; for Dose.FC.LYZ.S: FC vs plate median; for Z.LYZ.S: standard z score; for SSMD.LYZ.S: strictly standardized mean difference
Source text: as §1

ISC-enriched organoids [3] = test: Primary screen, 384-well 2.5-D organoid differentiation (ENR+CD, 6 days, Target Selective Inhibitor Library, vs whole-plate median): ATP (CellTiter-Glo 3D, CTG); settings: for Dose.FC.CTG (log 2 fold change): vs plate median; for Dose.FC.CTG: FC vs plate median; for SSMD.CTG: strictly standardized mean difference
[4] = Dose 0.08 uM, primary screen, standard z score
[5] = Dose 0.40 uM, primary screen, standard z score
[6] = Dose 2.00 uM, primary screen, standard z score
[7] = Dose 10.00 uM, primary screen, standard z score
[8] = primary screen, 1st of the 4 dose lines of the treatment (dose not given)
[9] = primary screen, 2nd of the 4 dose lines of the treatment (dose not given)
[10] = primary screen, 3rd of the 4 dose lines of the treatment (dose not given)
[11] = primary screen, 4th of the 4 dose lines of the treatment (dose not given)
[12] = 1st of the 4 dose lines of the treatment (dose not given)
[13] = 2nd of the 4 dose lines of the treatment (dose not given)
[14] = 3rd of the 4 dose lines of the treatment (dose not given)
[15] = 4th of the 4 dose lines of the treatment (dose not given)
[16] = Dose 0.08 uM, standard z score of FC
[17] = Dose 0.40 uM, standard z score of FC
[18] = Dose 2.00 uM, standard z score of FC
[19] = Dose 10.00 uM, standard z score of FC

## CC(C)[C@H](O)C(=O)N[C@@H](C)C(=O)N[C@@H]1C(=O)N(C)CCc2ccccc21 [Semagacestat (LY450139)]
ISC-enriched organoids [1]; Dose 0.08 uM, primary screen
  Z.LYZ.NS (standard z score): 0.151
  Dose.FC.LYZ.NS (log 2 fold change): 0.017
ISC-enriched organoids [1]; Dose 0.40 uM, primary screen
  Z.LYZ.NS (standard z score): −0.181
  Dose.FC.LYZ.NS (log 2 fold change): −0.021
ISC-enriched organoids [1]; Dose 2.00 uM, primary screen
  Z.LYZ.NS (standard z score): −0.704
  Dose.FC.LYZ.NS (log 2 fold change): −0.081
ISC-enriched organoids [1]; Dose 10.00 uM, primary screen
  Z.LYZ.NS (standard z score): −0.942
  Dose.FC.LYZ.NS (log 2 fold change): −0.108
ISC-enriched organoids [2]; Dose 0.08 uM
  Dose.FC.LYZ.S (log 2 fold change): −0.014
ISC-enriched organoids [2]; Dose 0.40 uM
  Dose.FC.LYZ.S (log 2 fold change): −0.006
ISC-enriched organoids [2]; Dose 2.00 uM
  Dose.FC.LYZ.S (log 2 fold change): −0.081
ISC-enriched organoids [2]; Dose 10.00 uM
  Dose.FC.LYZ.S (log 2 fold change): −0.162
ISC-enriched organoids [3]; Dose 0.08 uM, primary screen
  Z.CTG (standard z score): 0.338
  Dose.FC.CTG (log 2 fold change): 0.141
ISC-enriched organoids [3]; Dose 0.40 uM, primary screen
  Z.CTG (standard z score): −0.494
  Dose.FC.CTG (log 2 fold change): −0.207
ISC-enriched organoids [3]; Dose 2.00 uM, primary screen
  Z.CTG (standard z score): −0.306
  Dose.FC.CTG (log 2 fold change): −0.128
ISC-enriched organoids [3]; Dose 10.00 uM, primary screen
  Z.CTG (standard z score): −2.045
  Dose.FC.CTG (log 2 fold change): −0.856

## O=C(/C=C\n1cnc(-c2cc(C(F)(F)F)cc(C(F)(F)F)c2)n1)N1CC(F)(F)C1 [KPT-276]
ISC-enriched organoids [1]; Dose 0.08 uM, primary screen
  Dose.FC.LYZ.NS: 0.056 log 2 fold change
ISC-enriched organoids [1]; [4]
  Z.LYZ.NS: 0.492
ISC-enriched organoids [1]; Dose 0.40 uM, primary screen
  Dose.FC.LYZ.NS: 0.086 log 2 fold change
ISC-enriched organoids [1]; [5]
  Z.LYZ.NS: 0.746
ISC-enriched organoids [1]; Dose 2.00 uM, primary screen
  Dose.FC.LYZ.NS: −0.224 log 2 fold change
ISC-enriched organoids [1]; [6]
  Z.LYZ.NS: −1.947
ISC-enriched organoids [1]; Dose 10.00 uM, primary screen
  Dose.FC.LYZ.NS: −0.256 log 2 fold change
ISC-enriched organoids [1]; [7]
  Z.LYZ.NS: −2.230
ISC-enriched organoids [1]; [8]
  SSMD.LYZ.NS: 0.486
ISC-enriched organoids [1]; [9]
  SSMD.LYZ.NS: 0.742
ISC-enriched organoids [1]; [10]
  SSMD.LYZ.NS: −1.426
ISC-enriched organoids [1]; [11]
  SSMD.LYZ.NS: −1.384
ISC-enriched organoids [2]; Dose 0.08 uM
  Dose.FC.LYZ.S: 0.133 log 2 fold change
ISC-enriched organoids [2]; Dose 0.40 uM
  Dose.FC.LYZ.S: 0.148 log 2 fold change
ISC-enriched organoids [2]; Dose 2.00 uM
  Dose.FC.LYZ.S: −0.327 log 2 fold change
ISC-enriched organoids [2]; Dose 10.00 uM
  Dose.FC.LYZ.S: −0.361 log 2 fold change
ISC-enriched organoids [2]; [12]
  Z.LYZ.S: 0.860
  SSMD.LYZ.S: 0.806
ISC-enriched organoids [2]; [13]
  Z.LYZ.S: 0.958
  SSMD.LYZ.S: 0.771
ISC-enriched organoids [2]; [14]
  Z.LYZ.S: −2.111
  SSMD.LYZ.S: −1.399
ISC-enriched organoids [2]; [15]
  Z.LYZ.S: −2.335
  SSMD.LYZ.S: −1.417
ISC-enriched organoids [3]; Dose 0.08 uM, primary screen
  Dose.FC.CTG: 0.167 log 2 fold change
ISC-enriched organoids [3]; [4]
  Z.CTG: 0.399
ISC-enriched organoids [3]; Dose 0.40 uM, primary screen
  Dose.FC.CTG: −0.044 log 2 fold change
ISC-enriched organoids [3]; [5]
  Z.CTG: −0.104
ISC-enriched organoids [3]; Dose 2.00 uM, primary screen
  Dose.FC.CTG: −0.413 log 2 fold change
ISC-enriched organoids [3]; [6]
  Z.CTG: −0.986
ISC-enriched organoids [3]; Dose 10.00 uM, primary screen
  Dose.FC.CTG: −0.703 log 2 fold change
ISC-enriched organoids [3]; [7]
  Z.CTG: −1.680
ISC-enriched organoids [3]; [8]
  SSMD.CTG: 0.494
ISC-enriched organoids [3]; [9]
  SSMD.CTG: −0.146
ISC-enriched organoids [3]; [10]
  SSMD.CTG: −0.772
ISC-enriched organoids [3]; [11]
  SSMD.CTG: −2.520

## CCC(CC)(NC(=O)C(C)C)C(=O)N[C@@H](CCCN=C(N)N)C(=O)NC1(C(=O)NC(c2ccc(F)cc2)c2ccc(F)cc2)CCCC1 [MM-102]
ISC-enriched organoids [1]; Dose 0.08 uM, primary screen
  Dose.FC.LYZ.NS: −0.025 log 2 fold change
ISC-enriched organoids [1]; [16]
  Z.LYZ.NS: −0.220
ISC-enriched organoids [1]; Dose 0.40 uM, primary screen
  Dose.FC.LYZ.NS: −0.010 log 2 fold change
ISC-enriched organoids [1]; [17]
  Z.LYZ.NS: −0.090
ISC-enriched organoids [1]; Dose 2.00 uM, primary screen
  Dose.FC.LYZ.NS: 0.026 log 2 fold change
ISC-enriched organoids [1]; [18]
  Z.LYZ.NS: 0.230
ISC-enriched organoids [1]; Dose 10.00 uM, primary screen
  Dose.FC.LYZ.NS: −0.164 log 2 fold change
ISC-enriched organoids [1]; [19]
  Z.LYZ.NS: −1.424
ISC-enriched organoids [1]; [8]
  SSMD.LYZ.NS: −0.233
ISC-enriched organoids [1]; [9]
  SSMD.LYZ.NS: −0.084
ISC-enriched organoids [1]; [10]
  SSMD.LYZ.NS: 0.128
ISC-enriched organoids [1]; [11]
  SSMD.LYZ.NS: −0.792
ISC-enriched organoids [2]; Dose 0.08 uM
  Dose.FC.LYZ.S: −0.027 log 2 fold change
ISC-enriched organoids [2]; Dose 0.40 uM
  Dose.FC.LYZ.S: −0.001 log 2 fold change
ISC-enriched organoids [2]; Dose 2.00 uM
  Dose.FC.LYZ.S: −0.035 log 2 fold change
ISC-enriched organoids [2]; Dose 10.00 uM
  Dose.FC.LYZ.S: −0.194 log 2 fold change
ISC-enriched organoids [2]; [12]
  Z.LYZ.S: −0.177
  SSMD.LYZ.S: −0.148
ISC-enriched organoids [2]; [13]
  Z.LYZ.S: −0.009
  SSMD.LYZ.S: −0.010
ISC-enriched organoids [2]; [14]
  Z.LYZ.S: −0.226
  SSMD.LYZ.S: −0.218
ISC-enriched organoids [2]; [15]
  Z.LYZ.S: −1.252
  SSMD.LYZ.S: −0.881
ISC-enriched organoids [3]; Dose 0.08 uM, primary screen
  Dose.FC.CTG: −0.205 log 2 fold change
ISC-enriched organoids [3]; [16]
  Z.CTG: −0.489
ISC-enriched organoids [3]; Dose 0.40 uM, primary screen
  Dose.FC.CTG: −0.132 log 2 fold change
ISC-enriched organoids [3]; [17]
  Z.CTG: −0.315
ISC-enriched organoids [3]; Dose 2.00 uM, primary screen
  Dose.FC.CTG: −0.233 log 2 fold change
ISC-enriched organoids [3]; [18]
  Z.CTG: −0.557
ISC-enriched organoids [3]; Dose 10.00 uM, primary screen
  Dose.FC.CTG: −0.403 log 2 fold change
ISC-enriched organoids [3]; [19]
  Z.CTG: −0.964
ISC-enriched organoids [3]; [8]
  SSMD.CTG: −0.485
ISC-enriched organoids [3]; [9]
  SSMD.CTG: −0.493
ISC-enriched organoids [3]; [10]
  SSMD.CTG: −0.877
ISC-enriched organoids [3]; [11]
  SSMD.CTG: −1.350

## O=C(Nc1cc(C(F)(F)F)ccc1N1CCCCC1)c1ccncc1 [SRPIN340]
ISC-enriched organoids [1]; Dose 0.08 uM, primary screen
  Z.LYZ.NS (standard z score): 1.004
  Dose.FC.LYZ.NS (log 2 fold change): 0.115
ISC-enriched organoids [1]; Dose 0.40 uM, primary screen
  Z.LYZ.NS (standard z score): 0.348
  Dose.FC.LYZ.NS (log 2 fold change): 0.040
ISC-enriched organoids [1]; Dose 2.00 uM, primary screen
  Z.LYZ.NS (standard z score): 0.846
  Dose.FC.LYZ.NS (log 2 fold change): 0.097
ISC-enriched organoids [1]; Dose 10.00 uM, primary screen
  Z.LYZ.NS (standard z score): 0.192
  Dose.FC.LYZ.NS (log 2 fold change): 0.022
ISC-enriched organoids [2]; Dose 0.08 uM
  Dose.FC.LYZ.S (log 2 fold change): 0.112
ISC-enriched organoids [2]; Dose 0.40 uM
  Dose.FC.LYZ.S (log 2 fold change): 0.098
ISC-enriched organoids [2]; Dose 2.00 uM
  Dose.FC.LYZ.S (log 2 fold change): 0.100
ISC-enriched organoids [2]; Dose 10.00 uM
  Dose.FC.LYZ.S (log 2 fold change): 0.078
ISC-enriched organoids [3]; Dose 0.08 uM, primary screen
  Z.CTG (standard z score): 1.005
  Dose.FC.CTG (log 2 fold change): 0.421
ISC-enriched organoids [3]; Dose 0.40 uM, primary screen
  Z.CTG (standard z score): 1.063
  Dose.FC.CTG (log 2 fold change): 0.445
ISC-enriched organoids [3]; Dose 2.00 uM, primary screen
  Z.CTG (standard z score): 1.083
  Dose.FC.CTG (log 2 fold change): 0.453
ISC-enriched organoids [3]; Dose 10.00 uM, primary screen
  Z.CTG (standard z score): 1.115
  Dose.FC.CTG (log 2 fold change): 0.467
